For this test, the system named is mPTPB transfected Raw264.7 cells. The experiment in a line: Blocking mPTPB-mediated signaling, Western blotting. The class given is cell-based, mouse. To be noted: dose-dependent. On the technique in general: Immunoblotting shows a protein as a band on a membrane.

Molecules are shown by their SMILES.

As to `O=C(O)C(=O)Nc1ccc(C#Cc2ccc(C(F)(F)F)cc2Cl)cc1` [Compound 4t, 2-((4-((2-chloro-4-(trifluoromethyl)phenyl)ethynyl)phenyl)amino)-2-oxoacetic Acid], the Akt activity entry is on record as “reduced”; the “IFN-γ induced phosphorylation of ERK1/2 and p38” value is “increased”.

The record behind these values is US11192850B2, “N-aryl oxamic acids” (Purdue Research Foundation, priority 2020, dated 2021).
